PubChem BioAssay (NCI)
“And” between values parts separate entries of the source, which are not always exact repeats. Identical values can stand only once.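 Test compounds were applied to cells in 96-well plates for 48 hours at 5 doses. Abbreviation: GI50, concentration required for 50% inhibition of growth. TGI: concentration producing complete growth inhibition.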

Experiments:
Assay in all cases: NCI-60 cell line screen, 48 h
SF-295 CNS = tested on: SF-295 CNS
DU-145 prostate = tested on: DU-145 prostate
NCI-H460 lung = tested on: NCI-H460 lung
HCC-2998 colon = tested on: HCC-2998 colon
NCI/ADR-RES ovarian = tested on: NCI/ADR-RES ovarian
M14 melanoma = tested on: M14 melanoma
HT29 colon = tested on: HT29 colon
HOP-92 NSCLC = tested on: HOP-92 NSCLC
UACC-62 melanoma = tested on: UACC-62 melanoma
K-562 leukemia = tested on: K-562 leukemia

Structure (SMILES) | GI50 (SF-295 CNS) | TGI (SF-295 CNS) | GI50 (DU-145 prostate) | TGI (DU-145 prostate) | GI50 (NCI-H460 lung) | TGI (NCI-H460 lung) | GI50 (HCC-2998 colon) | TGI (HCC-2998 colon) | GI50 (NCI/ADR-RES ovarian) | TGI (NCI/ADR-RES ovarian) | GI50 (M14 melanoma) | TGI (M14 melanoma) | GI50 (HT29 colon) | TGI (HT29 colon) | GI50 (HOP-92 NSCLC) | TGI (HOP-92 NSCLC) | GI50 (UACC-62 melanoma) | TGI (UACC-62 melanoma) | GI50 (K-562 leukemia) | TGI (K-562 leukemia)
CCn1c(-c2nonc2N)nc2c(C#CCN)ncc(OCCCN)c21 | > 25 µM | > 25 µM | > 25 µM | > 25 µM | > 25 µM | > 25 µM | > 25 µM | > 25 µM | > 25 µM | > 25 µM | > 25 µM | > 25 µM | > 25 µM | > 25 µM | 4.64 µM | > 25 µM | > 25 µM | > 25 µM | > 25 µM | > 25 µM
COC1(C(=O)N2Cc3nc(Cl)nc(N[C@H](C)c4cc(N)cc(C(F)(F)F)c4)c3C2)CCOCC1 | 12.5 µM | 26.2 µM | 31.7 µM | > 100 µM | 18.7 µM | 40.9 µM | 20.8 µM | 59.2 µM | 24.6 µM | > 94.5 µM | 17.8 µM | 40.6 µM | 18 µM | 36.6 µM | 0.356 µM | 21 µM | 13.8 µM | 27.7 µM | 0.888 µM | > 68.4 µM
CC(=O)OCC1OC(O[C@@H]2C[C@H]3C(C)(C)[C@H](OC(C)=O)CC[C@]3(C)[C@H]3CCC4=C([C@@H](C)C[C@@H](O)[C@H](O)C(C)(C)O)CC[C@@]4(C)[C@@]32C)C(O)C(O)C1O (some centres undefined) | 17.5 µM | 31.6 µM | 17.8 µM | 31.8 µM | 16 µM | 29.8 µM | 12 µM | 25.2 µM | 20.4 µM | 43.5 µM | 17.3 µM | 31.4 µM | 16.6 µM | 30.2 µM | 14.6 µM | 27.9 µM | 12.6 µM | 25.1 µM | 12.7 µM | 32.5 µM
CN=C(N)N/N=C(\c1ccccc1)c1ccc(Br)cc1 | 0.287 µM | 1.48 µM | 0.366 µM | 10.5 µM | 0.355 µM | 9.05 µM | 0.38 µM | 1.37 µM | 0.322 µM | 3.25 µM | 0.272 µM | 0.872 µM | 0.322 µM | 1.72 µM | 0.3 µM | 2.9 µM | 0.859 µM | 9.16 µM | 0.294 µM | 6.31 µM
Clc1ccccc1C(c1ccccc1)(c1ccccc1)n1ccnc1 | 1.94 µM | 9.67 µM and 23.7 µM | 4.87 µM | 17.2 µM and 39.6 µM | 2.9 µM | 9.53 µM and 29.8 µM | 3.3 µM | 12.7 µM and 31 µM | 2.88 µM | 13.3 µM and 28.2 µM | 2.23 µM | 5.46 µM and 29.8 µM | 2.24 µM | 7.1 µM and 28 µM | 1.57 µM | 4.3 µM and 37.9 µM | 1.44 µM | 6.68 µM and 27.9 µM |  | > 42.1 µM
COc1ccc(-c2cc(-c3cc(Cl)ccc3Cl)nc3[nH]c(-c4cc(F)c(Cl)cc4Cl)cc(=O)c23)cc1 | 23.8 µM | > 100 µM | 31.3 µM | > 100 µM | 87.3 µM | > 100 µM | 15.1 µM | 32.3 µM | 4.95 µM | 23.2 µM | 13.5 µM | 35.8 µM | 39.2 µM | > 100 µM | 35.3 µM | > 100 µM | 14.3 µM | 93.4 µM | 29.3 µM | > 100 µM
CC(C)(C)c1cc(O)c(O)c(C(C)(C)C)c1 | 3.53 µM | 14.4 µM | 4.6 µM | 15.8 µM | 3 µM | 10 µM | 4.44 µM | 16.6 µM | 3.54 µM | 17.9 µM | 3.91 µM | 13.8 µM | 2.9 µM | 6.71 µM | 1.36 µM | 4.6 µM | 2.54 µM | 7.78 µM | 2.47 µM | 7.44 µM
